Results from paper PMC11954736 (BioImpacts : BI, 2024).

How the values were obtained:
NF-κB = test: Western blot of NF-κB in rat hippocampal tissue; assay type: in vivo, Wistar rats; details: Aβ induced AD rats, oral, 21 days
TNFα = test: Western blot of TNFα in rat hippocampal tissue; assay type: in vivo, Wistar rats; details: Aβ induced AD rats, oral, 21 days
[1] = test system: Aβ-induced memory impairment in Wistar rats; test: Morris water maze; assay type: in vivo; details: Aβ induced AD rats, oral, 21 days; 3rd and fourth training days
PC12 cells = test: Cell viability assay; assay type: cell-based, rat; details: MTT, 48 h exposure, studied concentrations
MCF7 = test: Cell viability assay; assay type: cell-based, human; details: MTT, 48 h exposure; LD50: concentration that causes 50% of cell viability
B16 = test: Cell viability assay; assay type: cell-based, murine; details: MTT, 48 h exposure; LD50: concentration that causes 50% of cell viability

Row | SMILES | NF-κB level in hippocamp tissue (western blot) (NF-κB) | TNFα level in hippocamp tissue (western blot) (TNFα) | Escape latency time, MWM [1] | PC12 (LD50 µM) (PC12 cells) | PC12 (LD50 µM) (PC12 cells; listed as galantamine) | MCF7 (LD50 µM) (MCF7) | B16 (LD50 µM) (B16)
1 | COc1cc2c(cc1OC)C(=O)C(CC1CCN(Cc3ccccc3)CC1)C2 (stereo not shown) [Donepezil] | Downregulation | Downregulation | significantly decreased | – | – | – | –
2 | COc1ccc2c3c1O[C@H]1C[C@@H](O)C=C[C@@]31CCN(C)C2 [Galantamine] | – | – | – | No growth inhibition* | no significant effect | 31.19 µM | 34.09 µM
